US11478528B2, “Antimicrobial peptides against Listeria monocytogenes” (MATERIAS S.r.l., priority 2017, dated 2022)
Entries after “also recorded” stand apart in the source; their conditions may differ. Ends that are not written are not given here.

Columns and labels:
[1] = test system: L. monocytogenes biofilms; test: Antibiofilm activity assay with SEM on steel discs; type: cell-based, Listeria monocytogenes; conditions: for cells on steel discs by SEM, 5000× image: 50 μM
Method: The activity of the Bac-amp1 and IDR-1018 peptides on L. monocytogenes biofilms was further investigated by scanning electron microscopy (SEM).
Specifically, in this example the three-dimensional biofilm architecture, developed on stainless steel materials, was studied.
The Aisi 304 stainless steel discs with a diameter of 14.5 mm (SS) were treated with 600 μl of standardized inoculum in the presence or absence of each of the peptides at the concentration of 25 μM or 50 μM, or with control medium, according to the same method of Example 4a and repeatedly washed in sterile PBS to remove planktonic cells and fixated on a new plate with 1 ml of Karnovsky fixative containing 5% glutaraldehyde, 4% paraformaldehyde in buffer 0.064 M (Electronic Microscopy Science, Hatfield, Pa., USA) for 1 hour at 4° C. Thereafter, the samples were washed in 0.1 M cacodylate sodium buffer at pH 7.4 (Electronic Microscopy Science, Hatfield, Pa., USA) and the fixated cells were dehydrated in a series of aqueous acetone solutions at different concentrations, in particular 25%, 50%, 75% and 100%. The samples were glued onto polished aluminium sample holders (Electronic Microscopy Science, Hatfield, Pa., USA) and uniformly vacuum coated with a 20-nm thick gold layer with the K950 high-vacuum Turbo Evaporator and a K 350 coupling (Emitech Ltd, Ashford, UK). The coated samples were examined at the JEOL 6700 FEG Field Emission Electron Microscope (SEM Jeol, City and State) with magnification from 1000× to 5000×. For each sample, a number of images (5-10), acquired as electronic images were randomly analyzed.

[2] = Thermostability assay by Circular Dichroism; type: physicochemical; conditions: 15 to 90° C., 2 hours at 90° C., pH 6, 10 mM SDS
Method: The prepared samples were incubated for two hours at 15° C. or 90° C. A CD analysis was performed on samples stored at 15° C. and before and after incubation for two hours at 90° C.

[3] = pH stability assay by Circular Dichroism; conditions: for pH range with increase in the percentage of unordered random coil structure: 10 mM SDS, 24 hours at 37° C.
Method: The stability of the Bac-amp1 and IDR-1018 peptides was assessed by studying their secondary structure with Circular Dichroism (CD) spectroscopy in the presence of Sodium Dodecyl Sulfate (SDS) micelles at a concentration of 10 mM to mimic the condition of the cell membrane, in different temperature and pH conditions.
CD assays were performed with a Jasco J-810 Spectropolarimeter equipped with a thermostatted cuvette compartment. The samples were loaded into a 0.1 cm-long quartz cuvette (Hellma Analytics) and the spectrum was analyzed in the 190 nm to 250 nm range at temperatures of 15° C. or 90° C. for each sample.
The CD spectra were acquired at a scanning speed of 20 nm/min, and the recorded results represent an average of 5 scans. The spectra at 90° C. were collected at time zero and after 2 hours to evaluate the thermostability of peptides at high temperatures.
The average ellipticity of the residues ([θ], degrees cm^2 dmol^−1) was calculated using the following equation: [θ]=100θ/cn1 where θ represents ellipticity (m degrees), c is the concentration (mM) of the peptide, n is the number of residues. The secondary structure was calculated through the DICHROWEB site (Whitmore L and Wallace B A, 2004, Nucleic Acids Research 32: 668-673, Whitmore L and Wallace B A, 2008, Biopolymers 89:392-400, Lobley et al, 2002, Bioinformatics 18:211-212), using three different algorithms (SELCON3, CONTIN-LLe CDSSTR) (Sreerema N and Woody R W, 1993, Analytical Biochemistry 287:252-260; Sreerema N et al, 1999, Protein Science 8:370-380, Provencher S W and Glockner J, 1981, Biochemistry 20:33-37, Van Stokkum I H M et al, 1990, Analytical Biochemistry 191:110-118, Compton L A and Johnson W C, 1986, Analytical Biochemistry 155:155-167, Manavalan P and Johnson W C, 1987, Analytical Biochemistry 167:76-85, Sreerama N et al, 2000, Protein Science 8:370-380) and selecting as a comparison data set the SMP180 protein, which includes a high number of soluble and membrane proteins (Abdul-Gader A et al, 2011, Bioinformatics 27:1630-1636). […]

S. aureus (NCTC) = type: cell-based, Staphylococcus aureus; conditions: 6 h
Method: (§1) The evaluation of the minimum bactericidal concentration (MBC) was carried out as described in Bilikova et al, (2015, Peptides 68:190-196) and the evaluation of the effective concentration to reduce 50% of the bacterial population (EC50) of the two peptides was carried out with the micro-dilutions of the broth as described in Wang H X and Ng T B (2003, Peptides 24:969-972). Standard deviations for triple incubations of each plate and EC50 evaluation were determined using GraphPad Prism version 6.00 (Graph-Pad Software, La Jolla Calif. USA) Staphylococcus aureus A control stock suspension was prepared in which 10^3 CFU of […] (6571 strain) were inoculated in 10 ml of BPW. […] Also in this case, the dilution series included control plates inoculated with DMSO without the peptide and control plates with bacteria only. 50 μl of each bacterial suspension were poured onto petri dishes with blood agar or rabbit plasma fibrinogen agar and incubated for 20 hours at 37° C. In all the investigated experimental conditions, the plate counting method was used to estimate the bactericidal activity of the peptides. Specifically, the number of colonies grown on plates with agar seeded with bacterial suspensions in the absence or in the presence of individual dilutions of peptides was counted and compared. […]

S. thyphimurium (ATCC) = type: cell-based, Salmonella typhimurium; conditions: 6 h
Method: as §1, with “Salmonella typhimurium” for “Staphylococcus aureus”, “(ATCC13311” for “(6571”, “BPW (Oxoid, Basingstoke, UK).” for “BPW.”, “Each” for “Also in this case, the”, “alone.” for “only. 50 μl of each bacterial suspension were poured onto petri dishes with blood agar or rabbit plasma fibrinogen agar and incubated for 20 hours at 37° C.”, “compared. The standard deviations of the triple incubations of each plate were determined using statistical software.” for “compared.”

[4] = test system: Listeria monocytogenes (ATCC strain and field strains SS1-SS5)
Method: The bactericidal activity of the Bac-amp1 and IDR-1018 peptides was evaluated against both Gram+ (Listeria monocytogenes and Staphylococcus aureus) and Gram− (Salmonella typhimurium) pathogenic bacteria.
Standard deviations for triple incubations of each plate and EC50 evaluation were determined using GraphPad Prism version 6.00 (Graph-Pad Software, La Jolla Calif. USA)
As regards Listeria monocytogenes, five field strains were added to the trial (wild strains) SS1 (serotype 4b), SS2 (serotype 4b), SS3 (serotype 4b), SS4 (serotype 4b), SS5 (serotype ½c) shown in Table 2. These strains were isolated from 200 samples of food waste, in particular fish products and milk derivatives, obtained from workbenches of food companies. All samples were collected in a context of official controls. Isolation of Listeria monocytogenes strains was performed according to the ISO-11290-1 standard. […]
In all the investigated experimental conditions, the plate counting method was used to estimate the bactericidal activity of the peptides. Specifically, the number of colonies grown on plates with agar seeded with bacterial suspensions in the absence or in the presence of individual dilutions of peptides was counted and compared. The standard deviations of the triple incubations of each plate were determined using statistical software. […]

[5] = test system: L. monocytogenes (LM2 food-isolated strain); test: Antimicrobial activity of Bac-amp1 coupled gold nanoparticles (CFU count); type: cell-based, Listeria monocytogenes; conditions: 0.10 μM to 0.58 μM, 15×10^4 CFU/mL, 6 h at 37° C.
Method: The bactericidal efficacy of the functionalized gold nanoparticles prepared in Example 6 was determined against L. monocytogenes (LM2 food-isolated strain) and S. Typhimurium (ATCC 13311 strain) bacteria, which allowed the evaluation of the minimal bactericidal concentration (MBC50), corresponding to the lowest peptide concentration able to cause at least 50% reduction in the number of viable bacteria on agar plates.
L. monocytogenes and S. Typhimurium were grown at 37° C. in Half Fraser (Biorad-Italia) and BPW (Biomerieux-Italia) broths, respectively. […]
Data were determined by numbering the surviving colony forming units (CFU) in the Au—NPs-Bac-amp1 plates and in the Au—NPs plates and were expressed as percent decrease in the number of CFU with respect to the initial number of CFU. […]
Thus, in another set of experiments, the activity of Bac-amp1 coupled nanoparticles was determined incubating 15×10^4 CFU/mL (colony forming units/mL) of Listeria with increasing concentrations, ranging from 0.10 μM to 0.58 μM, of coupled nanoparticles (Au—NPs-Bac-amp1 plates), non-functionalized gold nanoparticles (Au—NPs plates) or free peptides (Bac-amp1 plates) for 6 h at 37° C. The number of viable colonies for the different plates at each concentration tested were counted.

[6] = test system: L. monocytogenes biofilms
Method: The antibiofilm activity of the Bac-amp1 and IDR-1018 peptides was tested by analyzing their ability to inhibit the formation of bacterial biofilms of L. monocytogenes.
The ability of peptides to prevent the formation of L. monocytogenes biofilms was determined according to the microplate assay described in G. Di Bonaventura et al. (2008, J Appl Microbiol 104(6):1552-61) with some modifications.
10 ml of bacterial suspension were then centrifuged the cell pellet was washed in PBS and diluted in BHI broth, reaching the concentration of about 10^3 CFU/ml of standardized inoculum.
The biofilm formation assays were conducted using as target surfaces the Aisi 304 stainless steel discs having a diameter of 14.5 mm (SS) used in the food industry as food contact surfaces. The discs were placed on 24-well Falcon® tissue culture plates, (Thermo Fisher Scientific Inc., Waltham, Mass., USA), with flat bottom and lid. Before use, the stainless steel discs were immersed in 10% acetone and left under weak stirring at room temperature for 30 min. After washing in ultrapure sterile water, the discs were incubated in ethanol 99.8% for 10 minutes under weak stirring and then washed in ultrapure sterile water, dried, packaged and sterilized at 121° C., 1 atm for 15 minutes.
In each set of experiments, 600 μl of standardized inoculum in the presence or absence of each of the peptides at the concentration of 12.5 μM, 25 μM or 50 μM were added to 24-well culture plates containing the previously treated stainless steel materials. BHI Broth was used as a negative control. The plates were incubated at 37° C. for 72 hours under static conditions. The cell count of L. monocytogenes, according to the ISO 11290-2:98 method. After incubation, the SS discs were washed three times with PBS and placed in a new plate to dry at 60° C. for 1 hour. […] Quantitative analysis of biofilm production was performed by adding 1 ml of 33% acetic acid, which removes the dye from the adhered cells. 200 μl of the obtained solution were transferred to a microplate and the crystal violet level (OD) was measured at 492 nm. […]

Substance | cells on steel discs by SEM, 5000× image [1] | thermostability (CD spectra) [2] | pH range with increase in the percentage of unordered random coil structure [3] | conformational stability at different pH ([3]; pH 1.0 to 11.0) | EC50 (S. aureus (NCTC)) | EC50 (S. thyphimurium (ATCC)) | MIC, bactericidal activity against Listeria monocytogenes ([4]; ATCC strain and field strains SS1-SS5) | EC50 ([4]; ATCC strain and field strains SS1-SS5, 6 h) | biofilm formation by SEM ([1]; 25 μM) | bacterial cell death versus concentration [5] | MIC, antibiofilm activity ([6]; biofilms) | MBIC100 (minimum biofilm inhibiting concentration) ([6]; biofilms, 72 h) | reduction of microbial biomass ([6]; concentrations of 25-50 μM, 72 h, 37° C., steel discs)
VRLIVAVRIWRR-NH2 [IDR-1018, VRLIVAVRIWRR] | a greater number of cells | high thermostability | 8.0-11.0 | higher conformational stability at pH 1.0; also recorded: greater conformational stability at pH 1.0 | – | – | – | – | – | – | – | – | –
VRLIVKVRIWRR-NH2 [Bac-amp1, VRLIVKVRIWRR-NH2] | near absence of cells | – | 1.0-4.0 | – | 1.66 µM | 2.83 µM | below 10 μM | 0.55 µM | significantly reduces the formation of biofilm | dose-dependent bacterial cell death | 25 to 50 µM | 25 to 50 µM | 100%
